Results taken from patent publication US9120785B2, “Pyridyl aminopyridines as Syk inhibitors” (Merck Sharp & Dohme Corp., priority 2011, dated 2015).

Target: recombinant human GST-Syk (Homo sapiens (Human), UniProt P43405)
Experiment: Homogeneous Time-Resolved Fluorescence (HTRF) assay for the recombinant human Syk enzyme
Assay type: biochemical
Details: recombinant human GST-Syk 5 pM, ATP 25 μM, 10-dose titration; read-out: rhSyk (nM) IC50
Procedure: Homogeneous Time-Resolved Fluorescence (HTRF) Assay for the Recombinant Human Syk Enzyme:
A recombinant GST-hSyk fusion protein was used to measure potency of compounds to inhibit human Syk activity. The recombinant human GST-Syk ([…] #08-176) (5 pM final concentration) was incubated with various concentrations of the inhibitor diluted in DMSO (0.1% final concentration) for 10 minutes at room temperature in 15 mM Tris-HCl (pH 7.5), 0.01% tween 20, 2 mM DTT in 384 well plate format. To initiate the reaction the biotinylated substrate peptide (250 nM final concentration) that contains the phosphorylation site for Syk was added with magnesium (5 mM final concentration) and ATP (25 μM final concentration). Final volume of the reaction was 10 μL. Phosphorylation of the peptide was allowed to proceed for 45 minutes at room temperature. To quench the reaction and detect the phosphorylated product, 2 nM of a Europium-anti-phosphotyrosine antibody (Perkin Elmer #AD0161) and 70 nM SA-APC (Perkin-Elmer #CR130-100) were added together in 15 mM Tris pH 7.5, 40 mM EDTA, 0.01% tween 20. Final volume of the quenching solution was 10 μL. The resulting HTRF signal was measured after 30 minutes on an EnVision (Perkin-Elmer) reader using a time-resolved fluorescence protocol.

Row | IC50 [nM] | SMILES
1 | 1.1 | Cc1cc(Nc2cc(C(F)(F)F)ccn2)nc(-c2cnc(C(O)[C@H]3CC[C@H](C(=O)O)CC3)s2)c1 (single isomer, unassigned) [Example 14-28, trans-4-{hydroxy[5-(4-methyl-6-{[4-(trifluoromethyl)pyridin-2-yl]amino}pyridin-2-yl)-1,3-thiazol-2-yl]methyl}cyclohexanecarboxylic acid]

Same assay, conditions: recombinant human GST-Syk 5 pM, ATP 25 μM; class symbols; read-out: rhSyk activity (IC50)

Row | IC50 [nM] | SMILES
2 | ≤ 100 | Cc1cc(Nc2cc(OC(C)C)ccn2)nc(-c2cnc(C(O)([C@H]3CC[C@H](C(=O)O)CC3)C(F)(F)F)s2)c1 (single isomer, unassigned) [Example 14-26, trans-4-{2,2,2-trifluoro-1-hydroxy-1-[5-(4-methyl-6-{[4-(propan-2-yloxy)pyridin-2-yl]amino}pyridin-2-yl)-1,3-thiazol-2-yl]ethyl}cyclohexanecarboxylic acid]
3 | ≤ 100 | Cc1cc(Nc2cc(C(F)(F)F)ccn2)nc(-c2cnc(C(O)[C@H]3CC[C@H](C(=O)O)CC3)s2)c1 (single isomer, unassigned) [Example 14-28, trans-4-{hydroxy[5-(4-methyl-6-{[4-(trifluoromethyl)pyridin-2-yl]amino}pyridin-2-yl)-1,3-thiazol-2-yl]methyl}cyclohexanecarboxylic acid]
4 | ≤ 100 | Cc1cc(Nc2cc(C(F)(F)F)ccn2)nc(-c2cnc(C(O)[C@H]3CC[C@H](C(=O)O)CC3)s2)c1 (single isomer, unassigned) [Example 14-29, trans-4-{hydroxy[5-(4-methyl-6-{[4-(trifluoromethyl)pyridin-2-yl]amino}pyridin-2-yl)-1,3-thiazol-2-yl]methyl}cyclohexanecarboxylic acid]
5 | ≤ 100 | Cc1ccnc(Nc2cccc(-c3cnc(C(C)(O)[C@H]4CC[C@H](C(=O)O)CC4)s3)n2)c1 (single isomer, unassigned) [Example 14-39, trans-4-[1-hydroxy-1-(5-{6-[(4-methylpyridin-2-yl)amino]pyridin-2-yl}-1,3-thiazol-2-yl)ethyl]cyclohexanecarboxylic acid]
6 | ≤ 100 | Cc1ccnc(Nc2cccc(-c3cnc(C(C)(O)[C@H]4CC[C@H](C(=O)O)CC4)s3)n2)c1 (single isomer, unassigned) [Example 14-40, trans-4-[1-hydroxy-1-(5-{6-[(4-methylpyridin-2-yl)amino]pyridin-2-yl}-1,3-thiazol-2-yl)ethyl]cyclohexanecarboxylic acid]
7 | ≤ 100 | CC(O)(c1ncc(-c2cc(Cl)cc(Nc3cc(C(F)(F)F)ccn3)n2)s1)[C@H]1CC[C@H](C(=O)O)CC1 (single isomer, unassigned) [Example 14-52, trans-4-{1-[5-(4-chloro-6-{[4-(trifluoromethyl)pyridin-2-yl]amino}pyridin-2-yl)-1,3-thiazol-2-yl]-1-hydroxyethyl}cyclohexanecarboxylic acid]
8 | ≤ 100 | CC(O)(c1ncc(-c2cc(C(F)F)cc(Nc3cc(C(F)(F)F)ccn3)n2)s1)[C@H]1CC[C@H](C(=O)O)CC1 (single isomer, unassigned) [Example 14-53, trans-4-{1-[5-(4-(difluoromethyl)-6-{[4-(trifluoromethyl)pyridin-2-yl]amino}pyridin-2-yl]-1,3-thiazol-2-yl}-1-hydroxyethyl)cyclohexanecarboxylic acid]
9 | ≤ 100 | CC(O)(c1ncc(-c2cc(C3CC3)cc(Nc3cc(C(F)(F)F)ccn3)n2)s1)[C@H]1CC[C@H](C(=O)O)CC1 (single isomer, unassigned) [Example 14-54]
10 | ≤ 100 | Cc1cc(Nc2cc(C(F)(F)F)ccn2)nc(-c2cnc(C(C)(O)C3CCC(C(=O)O)C(C)C3)s2)c1 (single isomer, unassigned) [Example 15-1, 4-{1-hydroxy-1-[5-(4-methyl-6-{[4-(trifluoromethyl)pyridin-2-yl]amino}pyridin-2-yl)-1,3-thiazol-2-yl]ethyl}-2-methylcyclohexanecarboxylic acid]
11 | ≤ 100 | Cc1cc(Nc2cc(C(F)(F)F)ccn2)nc(-c2cnc(C(C)(O)C3CCC(C(=O)O)C(C)C3)s2)c1 (single isomer, unassigned) [Example 15-2, 4-{1-hydroxy-1-[5-(4-methyl-6-{[4-(trifluoromethyl)pyridin-2-yl]amino}pyridin-2-yl)-1,3-thiazol-2-yl]ethyl}-2-methylcyclohexanecarboxylic acid]
12 | ≤ 100 | Cc1cc(Nc2cc(C(F)(F)F)ccn2)nc(-c2cnc(C(C)(O)C3CCC(C(=O)O)C(C)C3)s2)c1 (single isomer, unassigned) [Example 15-3, 4-{1-hydroxy-1-[5-(4-methyl-6-{[4-(trifluoromethyl)pyridin-2-yl]amino}pyridin-2-yl)-1,3-thiazol-2-yl]ethyl}-2-methylcyclohexanecarboxylic acid]
13 | ≤ 100 | Cc1cc(Nc2cc(C(F)(F)F)ccn2)nc(-c2cnc(C(C)(O)C3CCC(C(=O)O)C(C)C3)s2)c1 (single isomer, unassigned) [Example 15-4, 4-{1-hydroxy-1-[5-(4-methyl-6-{[4-(trifluoromethyl)pyridin-2-yl]amino}pyridin-2-yl)-1,3-thiazol-2-yl]ethyl}-2-methylcyclohexanecarboxylic acid]
14 | ≤ 100 | Cc1cc(Nc2cc(C(F)(F)F)ccn2)nc(-c2cnc(C(C)(O)C3CCC(C(=O)O)C(C)C3)s2)c1 (single isomer, unassigned) [Example 15-5, 4-{1-hydroxy-1-[5-(4-methyl-6-{[4-(trifluoromethyl)pyridin-2-yl]amino}pyridin-2-yl)-1,3-thiazol-2-yl]ethyl}-2-methylcyclohexanecarboxylic acid]
15 | ≤ 100 | Cc1cc(Nc2cc(C(F)(F)F)ccn2)nc(-c2cnc(C(C)(O)C3CCC(C(=O)O)C(C)C3)s2)c1 (single isomer, unassigned) [Example 15-6, 4-{1-hydroxy-1-[5-(4-methyl-6-{[4-(trifluoromethyl)pyridin-2-yl]amino}pyridin-2-yl)-1,3-thiazol-2-yl]ethyl}-2-methylcyclohexanecarboxylic acid]
16 | ≤ 100 | Cc1cc(Nc2cc(C(F)(F)F)ccn2)nc(-c2cnc(C(C)(O)C3CCC(C(=O)O)C(C)C3)s2)c1 (single isomer, unassigned) [Example 15-7, 4-{1-hydroxy-1-[5-(4-methyl-6-{[4-(trifluoromethyl)pyridin-2-yl]amino}pyridin-2-yl)-1,3-thiazol-2-yl]ethyl}-2-methylcyclohexanecarboxylic acid]
17 | ≤ 100 | Cc1cc(Nc2cc(C(F)(F)F)ccn2)nc(-c2cnc(C(C)(O)C3CCC(C(=O)O)C(C)C3)s2)c1 (single isomer, unassigned) [Example 15-8, 4-{1-hydroxy-1-[5-(4-methyl-6-{[4-(trifluoromethyl)pyridin-2-yl]amino}pyridin-2-yl)-1,3-thiazol-2-yl]ethyl}-2-methylcyclohexanecarboxylic acid]
18 | ≤ 100 | Cc1cc(Nc2cc(C(F)(F)F)ccn2)nc(-c2cnc(C(C)(O)C3CCC(C(=O)O)C(C)C3)s2)c1 (single isomer, unassigned) [Example 15-9, 4-{1-hydroxy-1-[5-(4-methyl-6-{[4-(trifluoromethyl)pyridin-2-yl]amino}pyridin-2-yl)-1,3-thiazol-2-yl]ethyl}-2-methylcyclohexanecarboxylic acid]
19 | ≤ 100 | Cc1cc(Nc2cc(C(F)(F)F)ccn2)nc(-c2cnc(C(C)(O)C3CCC(C(=O)O)C(C)C3)s2)c1 (single isomer, unassigned) [Example 15-10, 4-{1-hydroxy-1-[5-(4-methyl-6-{[4-(trifluoromethyl)pyridin-2-yl]amino}pyridin-2-yl)-1,3-thiazol-2-yl]ethyl}-2-methylcyclohexanecarboxylic acid]
20 | ≤ 100 | Cc1cc(Nc2cc(C(F)(F)F)ccn2)nc(-c2cnc(C(C)(O)C3CCC(C(=O)O)C(C)C3)s2)c1 (single isomer, unassigned) [Example 15-11, 4-{1-hydroxy-1-[5-(4-methyl-6-{[4-(trifluoromethyl)pyridin-2-yl]amino}pyridin-2-yl)-1,3-thiazol-2-yl]ethyl}-2-methylcyclohexanecarboxylic acid]
21 | ≤ 100 | Cc1cc(Nc2cc(C(F)(F)F)ccn2)nc(-c2cnc(C(C)(O)C3CCC(C(=O)O)C(C)C3)s2)c1 (single isomer, unassigned) [Example 15-12, 4-{1-hydroxy-1-[5-(4-methyl-6-{[4-(trifluoromethyl)pyridin-2-yl]amino}pyridin-2-yl)-1,3-thiazol-2-yl]ethyl}-2-methylcyclohexanecarboxylic acid]
22 | ≤ 100 | Cc1cc(Nc2cc(C(F)(F)F)ccn2)nc(-c2cnc(C(C)(O)C3CCC(C(=O)O)C(C)C3)s2)c1 (single isomer, unassigned) [Example 15-13, 4-{1-hydroxy-1-[5-(4-methyl-6-{[4-(trifluoromethyl)pyridin-2-yl]amino}pyridin-2-yl)-1,3-thiazol-2-yl]ethyl}-2-methylcyclohexanecarboxylic acid]
23 | ≤ 100 | Cc1cc(Nc2cc(C(F)(F)F)ccn2)nc(-c2cnc(C(C)(O)C3CCNC3)s2)c1 (stereo not drawn) [Example 12, 1-[5-(4-Methyl-6-{[4-(trifluoromethyl)pyridin-2-yl]amino}pyridin-2-yl)-1,3-thiazol-2-yl]-1-(pyrrolidin-3-yl)ethanol]
24 | ≤ 100 | Cc1cc(Nc2cc(C(F)(F)F)ccn2)nc(-c2cnc(C(C)(O)C3CCN(C(N)=O)C3)s2)c1 (stereo not drawn) [Example 13, 3-{1-Hydroxy-1-[5-(4-methyl-6-{[4-(trifluoromethyl)pyridin-2-yl]amino}pyridin-2-yl)-1,3-thiazol-2-yl]ethyl}pyrrolidine-1-carboxamide]
